Results on 21 compounds are retold here after patent publication US11590116B2 (THERAVANCE BIOPHARMA R&D IP, LLC, priority 2019, dated 2023).

Assay [1] addresses T1, recombinant human ALK5 (TGF-βR1) protein (Homo sapiens, UniProt P36897).
T1 construct: purchased Life Technologies PR9075A
T1 sequence (P36897 34-503): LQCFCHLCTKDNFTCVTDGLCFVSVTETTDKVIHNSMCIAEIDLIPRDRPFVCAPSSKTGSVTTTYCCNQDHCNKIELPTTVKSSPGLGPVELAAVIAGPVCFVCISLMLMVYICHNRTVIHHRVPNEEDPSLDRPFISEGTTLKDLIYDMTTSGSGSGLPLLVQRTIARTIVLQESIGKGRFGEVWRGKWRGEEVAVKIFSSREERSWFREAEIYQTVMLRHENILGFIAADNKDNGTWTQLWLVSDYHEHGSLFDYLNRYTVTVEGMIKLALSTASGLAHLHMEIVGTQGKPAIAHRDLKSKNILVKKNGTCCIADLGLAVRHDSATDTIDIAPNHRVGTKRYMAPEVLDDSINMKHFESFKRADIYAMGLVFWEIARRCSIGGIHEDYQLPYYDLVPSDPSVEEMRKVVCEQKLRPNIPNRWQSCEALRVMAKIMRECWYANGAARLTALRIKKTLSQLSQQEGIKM
As to the kind of experiment: Biochemical ALK5 (TGF-βR1) assay to measure pKi (LANCE Ultra ULight kinase assay). Particulars: apparent pKi from pIC50 by Cheng-Prusoff, read-out: ALK5 pKi (converted). The procedure, abridged: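 Dose range 10 μM–25 pM; enzyme + compound 60 min RT; ATP added (5× stock 125 μM, 2 mM DTT); 60 min 37 °C; stop with EDTA + Eu anti-phospho-Topo IIα Thr1342 Ab; TR-FRET ex 320/340, em 665 nm. 4-param pIC50 → pKi (Cheng-Prusoff).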

Assay [2] has as its system TGF-β-stimulated SMAD3 phosphorylation in BEAS-2B cells. As to the kind of experiment: Cellular ALK5 potency assay, inhibition of TGF-β stimulated pSMAD3 formation in BEAS-2B cells. The assay is classed as cell-based. Particulars: Homo sapiens; inhibition of TGF-β stimulated pSMAD3 formation, BEAS-2B cells; read-out: BEAS2B pIC50 (converted). The procedure, abridged: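 BEAS-2B human lung epithelial cells, seeded overnight, were pre-treated with compound in HBSS/25 mM HEPES/1% BSA for 1 h at 37 °C, then stimulated with TGF-β (final 10 ng/mL) for 30 min. Lysates were assayed for pSMAD3 by AlphaLISA; pIC50 came from dose-dependent signal change versus TGF-β-stimulated untreated cells.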

The structures appear in SMILES notation.

Consider `Cc1cccc(-c2nn3cc(Cl)ccc3c2-c2ccc3ncc(-c4cn[nH]c4)cc3n2)n1` [Compound 330, 2-[6-chloro-2-(6-methyl-2-pyridyl)pyrazolo[1,5-a]pyridin-3-yl]-7-(1H-pyrazol-4-yl)-1,5-naphthyridine], for which the Ki in assay [1] is 0.0398 to 0.316 nM. The IC50 in assay [2] is 25.1 to 158 nM.

On to `Cc1cccc(-c2[nH]ncc2-c2ccc3ncc(C(=O)O[C@H]4CC[C@](C)(N)CC4)cc3c2)n1` [Compound 1196, (4-amino-4-methyl-cyclohexyl) 6-[5-(6-methyl-2-pyridyl)-1H-pyrazol-4-yl]quinoline-3-carboxylate], for which the Ki in assay [1] was 0.0398 to 0.316 nM. In addition, the IC50 in assay [2] is less than 20 nM.

Regarding `Cc1cccc(-c2[nH]cnc2-c2ccc3ncc(C(=O)OCCCC4CNC4)cc3c2)n1` [Compound 1090, 3-(azetidin-3-yl)propyl 6-[5-(6-methyl-2-pyridyl)-1H-imidazol-4-yl]quinoline-3-carboxylate], the Ki in assay [1] is 0.0398 to 0.316 nM. Further, in assay [2], the IC50 is 200 to 1260 nM.

`Cc1cccc(-c2[nH]cnc2-c2ccc3ncc(-c4ccnc(C(=O)OCCN5CCNCC5)c4)cc3c2)n1` [Compound 1099, 2-piperazin-1-ylethyl 4-[6-[5-(6-methyl-2-pyridyl)-1H-imidazol-4-yl]-3-quinolyl]pyridine-2-carboxylate]: the Ki in assay [1] is 0.0398 to 0.316 nM. Besides, the IC50 in assay [2] is 200 to 1260 nM.

For the compound `Cc1cccc(-c2[nH]cnc2-c2ccc3ncc(C(=O)O[C@@H]4CCN(C)C4)cc3c2)n1` [Compound 758, [(3R)-1-methylpyrrolidin-3-yl] 6-[5-(6-methyl-2-pyridyl)-1H-imidazol-4-yl]quinoline-3-carboxylate], the Ki in assay [1] was 0.398 to 3.16 nM. In addition, the IC50 in assay [2] is 25.1 to 158 nM.

With `CCc1cccc(-c2n[nH]cc2-c2ccc3ncc(N4CCC(N(C)C)CC4)cc3n2)n1` [Compound 348, 1-[6-[3-(6-ethyl-2-pyridyl)-1H-pyrazol-4-yl]-1,5-naphthyridin-3-yl]-N,N-dimethyl-piperidin-4-amine], the Ki in assay [1] is less than 0.0316 nM. Also, the IC50 in assay [2] was 25.1 to 158 nM.

Turning to `Cc1cccc(-c2[nH]cnc2-c2ccc3ncc(-c4ccc(C(=O)O)cn4)cc3c2)n1` [Compound 1091, 6-[6-[5-(6-methyl-2-pyridyl)-1H-imidazol-4-yl]-3-quinolyl]pyridine-3-carboxylic acid], in assay [1], the Ki is less than 0.0316 nM. The IC50 in assay [2] was 1580 to 10000 nM.

In the case of `Cc1nc(-c2nc3ccccn3c2-c2ccc3ncc(N4CCNCC4)cc3c2)ccc1F` [Compound 457, 6-[2-(5-fluoro-6-methyl-2-pyridyl)imidazo[1,2-a]pyridin-3-yl]-3-piperazin-1-yl-quinoline], in assay [1], the Ki was 0.0398 to 0.316 nM. Also, the IC50 in assay [2] was 25.1 to 158 nM.

On to `Cc1cccc(-c2[nH]cnc2-c2ccc3ncc(-c4csc(C(=O)OC[C@@H]5CCC[C@H](N)C5)c4)cc3c2)n1` (racemic) [Compound 1197, [rac-(1R,3S)-3-aminocyclohexyl]methyl 4-[6-[5-(6-methyl-2-pyridyl)-1H-imidazol-4-yl]-3-quinolyl]thiophene-2-carboxylate], for which the Ki in assay [1] was 0.0398 to 0.316 nM. In addition, the IC50 in assay [2] was 25.1 to 158 nM.

On to `Cc1cccc(-c2n[nH]cc2-c2ccc3ncc(N4CCC[C@@H](N(C)C)C4)cc3n2)n1` [Compound 433, (3R)-N,N-dimethyl-1-[6-[3-(6-methyl-2-pyridyl)-1H-pyrazol-4-yl]-1,5-naphthyridin-3-yl]piperidin-3-amine], for which, in assay [1], the Ki was 0.0398 to 0.316 nM. The IC50 in assay [2] was 25.1 to 158 nM.

`Cc1cccc(-c2[nH]cnc2-c2ccc3ncc(-c4nccc(C(=O)OC5CNC5)n4)cc3c2)n1` [Compound 1075, azetidin-3-yl 2-[6-[5-(6-methyl-2-pyridyl)-1H-imidazol-4-yl]-3-quinolyl]pyrimidine-4-carboxylate]: the Ki in assay [1] was 0.398 to 3.16 nM. Further, the IC50 in assay [2] is 200 to 1260 nM.

On to `Cc1cccc(-c2[nH]cnc2-c2ccc3ncc(C4=CCC(NC(=O)CSC5CCOC5=O)CC4)cc3c2)n1` (stereo not drawn) [Compound 98, N-(4-(6-(5-(6-methylpyridin-2-yl)-1H-imidazol-4-yl)quinolin-3-yl)cyclohex-3-en-1-yl)-2-((2-oxotetrahydrofuran-3-yl)thio)acetamide], for which the Ki in assay [1] is 0.0398 to 0.316 nM. Also, the IC50 in assay [2] was 25.1 to 158 nM.

Take `Cc1cccc(-c2[nH]cnc2-c2ccc3ncc(-c4cnc(C(=O)O[C@@H]5CCNC5)nc4)cc3c2)n1` [Compound 1059, [(3R)-pyrrolidin-3-yl] 5-[6-[5-(6-methyl-2-pyridyl)-1H-imidazol-4-yl]-3-quinolyl]pyrimidine-2-carboxylate]: the Ki in assay [1] was 0.0398 to 0.316 nM. In addition, in assay [2], the IC50 was 200 to 1260 nM.

In the case of `CNCCn1cc(-c2cnc3ccc(-c4c[nH]nc4-c4cccc(C)n4)nc3c2OC)cn1` [Compound 127, 2-[4-[4-methoxy-6-[3-(6-methyl-2-pyridyl)-1H-pyrazol-4-yl]-1,5-naphthyridin-3-yl]pyrazol-1-yl]-N-methyl-ethanamine], the Ki in assay [1] was less than 0.0316 nM. Further, the IC50 in assay [2] was 25.1 to 158 nM.

As to `Cc1nc(-c2n[nH]cc2-c2ccc3ncc(-c4cn[nH]c4)cc3n2)ccc1F` [Compound 482, 2-[3-(5-fluoro-6-methyl-2-pyridyl)-1H-pyrazol-4-yl]-7-(1H-pyrazol-4-yl)-1,5-naphthyridine], the Ki in assay [1] was less than 0.0316 nM. Besides, the IC50 in assay [2] was less than 20 nM.

`Cc1cccc(-c2n[nH]cc2-c2ccc3ncc(-c4cnn(CC(=O)O)c4)cc3n2)n1` [Compound 240, 2-[4-[6-[3-(6-methyl-2-pyridyl)-1H-pyrazol-4-yl]-1,5-naphthyridin-3-yl]pyrazol-1-yl]acetic acid]: the Ki in assay [1] was less than 0.0316 nM. Besides, the IC50 in assay [2] is 25.1 to 158 nM.

In the case of `Cc1cccc(-c2[nH]ncc2-c2ccc3nccc(C(=O)OC[C@H]4CC[C@@H](N)CC4)c3c2)n1` [Compound 1130, (4-aminocyclohexyl)methyl 6-[5-(6-methyl-2-pyridyl)-1H-pyrazol-4-yl]quinoline-4-carboxylate], in assay [1], the Ki is 0.398 to 3.16 nM. Also, the IC50 in assay [2] was 25.1 to 158 nM.

Take `Cc1cccc(-c2[nH]cnc2-c2ccc3ncc(-c4cc(C(=O)OC5CCNCC5)ccn4)cc3c2)n1` [Compound 1115, 4-piperidyl 2-[6-[5-(6-methyl-2-pyridyl)-1H-imidazol-4-yl]-3-quinolyl]pyridine-4-carboxylate]: the Ki in assay [1] is 0.0398 to 0.316 nM. For the same compound, the IC50 in assay [2] was 25.1 to 158 nM.

For `Cc1cccc(-c2n[nH]cc2-c2ccc3ncc(C4=CCC(N(C)C)CC4)cc3n2)n1` (stereo not drawn) [Compound 685, N,N-dimethyl-4-[6-[3-(6-methyl-2-pyridyl)-1H-pyrazol-4-yl]-1,5-naphthyridin-3-yl]cyclohex-3-en-1-amine], the Ki in assay [1] was 0.0398 to 0.316 nM. In addition, in assay [2], the IC50 was 25.1 to 158 nM.

On to `Cc1cccc(-c2[nH]cnc2-c2ccc3ncc(-c4csc(C(=O)OC5CCNCC5)n4)cc3c2)n1` [Compound 1146, 4-piperidyl 4-[6-[5-(6-methyl-2-pyridyl)-1H-imidazol-4-yl]-3-quinolyl]thiazole-2-carboxylate], for which the Ki in assay [1] is less than 0.0316 nM. Moreover, in assay [2], the IC50 is 25.1 to 158 nM.

On to `Cc1nc(-c2n[nH]cc2-c2ccc3ncc(-c4nc(C(F)(F)F)n5c4CNCC5)cc3n2)ccc1F` [Compound 51, 2-[3-(5-fluoro-6-methyl-2-pyridyl)-1H-pyrazol-4-yl]-7-[3-(trifluoromethyl)-5,6,7,8-tetrahydroimidazo[1,5-a]pyrazin-1-yl]-1,5-naphthyridine], for which the Ki in assay [1] was 0.0398 to 0.316 nM. For the same compound, the IC50 in assay [2] was 25.1 to 158 nM.
